The values below are quoted from earlier work in patent US8697862B2, “Synthesis of galactoside inhibitors” (Galecto Biotech AB, priority 2008, dated 2014).

The series concerns galectins.

SMILES strings stand for the structures.

Take `O=C[C@H](O)[C@@H](O)[C@@H](O)[C@H](O)CO` [D-galactose]: under “relative to lactose”, the “affinity, times lower than lactose” value is on record as 50-100 times.
In general, Kd refers to a measure of binding affinity in units of concentration. With `OC[C@H]1O[C@@H](O[C@H]2[C@H](O)[C@@H](O)C(O)O[C@@H]2CO)[C@H](O)[C@@H](O)[C@H]1O` (some centres unmarked) [lactose], for the setting “all galectins”, the Kd was 500 to 1000 µM.
